Oligonucleotides are written 5' to 3', each unit as a sugar letter and its base; * is a phosphorothioate linkage, no mark a phosphodiester; rarer units and linkages stand in square brackets, end groups in braces. Plain capitals give the bases only. e = 2'-O-(2-methoxyethyl) (MOE); [5mC] = 5-methylcytosine; d = 2'-deoxy (DNA)
Legend:
murine TTC39B mRNA [1] = assay: Antisense inhibition of murine TTC39B in mouse primary hepatocytes, single dose; type: cell-based; conditions: 100 nM, cytofectin, ~24 h, vs untreated control; gapmers targeted to SEQ ID NO: 6
Method in brief: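 Mouse primary hepatocytes transfected by cytofectin with 100 nM 5-10-5 MOE gapmer (20-mer, phosphorothioate, 5-methylcytosine) for ~24 h. TTC39B mRNA quantified by real-time qPCR, normalized to RIBOGREEN total RNA. Values given as percent inhibition versus untreated cells.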

murine TTC39B mRNA [2] = assay: In vivo antisense inhibition of murine TTC39B mRNA in liver of C57BL/6 mice; design: species or system mouse; conditions: 50 mg/kg/week, 6 weeks, relative to PBS control
Experimental: (§1) Four groups of five mice each were injected twice a week with 25 mg/kg (totaling 50 mg/kg/week) of ISIS 447114, ISIS 447118, ISIS 447143, or ISIS 447144 for 6 weeks. A control group of five mice was injected with phosphate buffered saline (PBS) twice a week for 6 weeks. Plasma samples were obtained before the start of treatment, at week 3 and at week 6. At the end of the treatment period, mice were fasted for 4 hours before being euthanized. Plasma and tissue samples were obtained for further analysis.
RNA was extracted from liver tissue for real-time PCR analysis of TTC39B using murine primer probe set mTtc39b_LTS00287. […] Results are presented as an average of the percent inhibition of TTC39B, relative to control.

apoA1 mRNA = apoA1 mRNA levels in C57BL/6 mice after TTC39B inhibition; type: in vivo, mouse; conditions: 50 mg/kg/week, 6 weeks
Experimental: as §1
(§2) The effect of inhibition of TTC39B in mice on these proteins of reverse cholesterol transport was studied. RNA levels of ABCA1 were measured using murine primer probe set RTS1204 (forward sequence […], designated herein as SEQ ID NO: 97; reverse sequence […], designated herein as SEQ ID NO: 98; and probe sequence […], designated herein as SEQ ID NO: 99). RNA levels of apoA1 were measured using murine primer probe set RTS14737 (forward sequence […], designated herein as SEQ ID NO: 100; reverse sequence […], designated herein as SEQ ID NO: 101; and probe sequence […], designated herein as SEQ ID NO: 102). RNA levels of SRB1 were measured using murine primer probe set mSRB-1 (forward sequence […], designated herein as SEQ ID NO: 103; reverse sequence ATGCGACTTGTCAGGCTGG, designated herein as SEQ ID NO: 104; and probe sequence […], designated herein as SEQ ID NO: 105).

ABCA1 mRNA = ABCA1 mRNA levels in C57BL/6 mice after TTC39B inhibition; type: in vivo, mouse; conditions: 50 mg/kg/week, 6 weeks
Experimental: as §1, §2

SRB1 mRNA = SRB1 mRNA levels in C57BL/6 mice after TTC39B inhibition; type: in vivo, mouse; conditions: 50 mg/kg/week, 6 weeks
Experimental: as §1, §2

APOA1 plasma protein = APOA1 plasma protein levels in C57BL/6 mice; type: in vivo, mouse; design: APOA1 plasma protein levels: unit not given here; conditions: for APOA1 plasma protein % change over the baseline: 6 weeks
Experimental: as §1

[3] = Plasma glucose in C57BL/6 mice (glucose oxidase assay); type: in vivo, mouse
Experimental: as §1
Plasma glucose values were determined using a Beckman Glucose Analyzer II (Beckman Coulter) by a glucose oxidase assay. As presented in Table 14, there was no significant change in glucose levels after treatment with ISIS oligonucleotides.

[4] = Plasma NEFA and 3-HB in C57BL/6 mice; type: in vivo, mouse; design: 3-HB levels: unit not given here; conditions: for 3-HB % change over the baseline / NEFA % change over the baseline: 6 weeks
Experimental: as §1
Effect of antisense inhibition of TTC39B on free fatty acid levels Plasma levels of non-esterified fatty acids (NEFA) and 3-hydroxybutyric acid (3-HB), which are the end-products of fatty acid oxidation, were measured using an automated clinical chemistry analyzer (Olympus Clinical Analyzer).

murine TTC39B mRNA [5] = assay: Dose-dependent antisense inhibition of murine TTC39B in mouse primary hepatocytes (Example 3); type: cell-based; conditions: cytofectin, ~16 h
Experimental: Cells were plated at a density of 10,000 cells per well and transfected using cytofectin reagent with 6.25 nM, 12.5 nM, 25 nM, 50 nM, 100 nM, and 200 nM concentrations of antisense oligonucleotide, as specified in Table 4. After a treatment period of approximately 16 hours, RNA was isolated from the cells and TTC39B mRNA levels were measured by quantitative real-time PCR. Murine primer probe set mTtc39b_LTS00287 was used to measure mRNA levels. TTC39B mRNA levels were adjusted according to total RNA content, as measured by RIBOGREEN®. Results are presented as percent inhibition of TTC39B, relative to untreated control cells.

[6] = Week 0 (before treatment), 50 mg/kg/week

Sequence	% inhibition of murine TTC39B mRNA (murine TTC39B mRNA [1]) [%]	% inhibition of TTC39B mRNA in liver (murine TTC39B mRNA [2]) [%]	abcA1 mRNA levels (effect of TTC39B inhibition) (ABCA1 mRNA)	srb1 mRNA levels (effect of TTC39B inhibition) (SRB1 mRNA)	APOA1 plasma protein % change over the baseline (APOA1 plasma protein; 50 mg/kg/week)	APOA1 plasma protein levels (APOA1 plasma protein; [6])	APOA1 plasma protein levels (APOA1 plasma protein; Week 3, 50 mg/kg/week)	APOA1 plasma protein levels (APOA1 plasma protein; Week 6, 50 mg/kg/week)	glucose levels [3, 6] [mg/dL]	glucose levels ([3]; Week 3, 50 mg/kg/week) [mg/dL]	glucose levels ([3]; Week 6, 50 mg/kg/week) [mg/dL]	3-HB % change over the baseline ([4]; 50 mg/kg/week)	NEFA % change over the baseline ([4]; 50 mg/kg/week)	3-HB levels [4, 6]	NEFA levels [4, 6] [mEq/L]	3-HB levels ([4]; Week 3, 50 mg/kg/week)	NEFA levels ([4]; Week 3, 50 mg/kg/week) [mEq/L]	3-HB levels ([4]; Week 6, 50 mg/kg/week)	NEFA levels ([4]; Week 6, 50 mg/kg/week) [mEq/L]	percent inhibition of TTC39B mRNA (murine TTC39B mRNA [5]; 6.25 nM) [%]	other results
TATTTCTATAGCTCATGACA (antisense eT*eA*eT*eT*eT*d[5mC]*dT*dA*dT*dA*dG*d[5mC]*dT*d[5mC]*dA*eT*eG*eA*e[5mC]*eA) [ISIS 447144]	69	70	0	0	+108%	+10	+14	+20	222	239	235	+152%	+101%	124	0.57	122	0.63	398	1.25	–	apoA1 mRNA levels (effect of TTC39B inhibition) (apoA1 mRNA; 50 mg/kg): average increase; apoA1 mRNA levels (effect of TTC39B inhibition) (apoA1 mRNA; listed as 447144, 50 mg/kg): +50
GCCACCAGTGCCTGCTGAGC (antisense eG*e[5mC]*e[5mC]*eA*e[5mC]*d[5mC]*dA*dG*dT*dG*d[5mC]*d[5mC]*dT*dG*d[5mC]*eT*eG*eA*eG*e[5mC]) [ISIS 447143]	74	85	−17	0	+108%	+10	+15	+20	238	231	241	+41%	+109%	108	0.70	89	0.72	222	1.30	7	percent inhibition of TTC39B mRNA (murine TTC39B mRNA [5]; 12.5 nM): 25%; percent inhibition of TTC39B mRNA (murine TTC39B mRNA [5]; 25.0 nM): 44%; percent inhibition of TTC39B mRNA (murine TTC39B mRNA [5]; 50.0 nM): 72%; percent inhibition of TTC39B mRNA (murine TTC39B mRNA [5]; 100.0 nM): 88%; percent inhibition of TTC39B mRNA (murine TTC39B mRNA [5]; 200.0 nM): 94%; apoA1 mRNA levels (effect of TTC39B inhibition) (apoA1 mRNA; 50 mg/kg): average increase; apoA1 mRNA levels (effect of TTC39B inhibition) (apoA1 mRNA; listed as 447143, 50 mg/kg): +1
CGGATGATTCTTGCTGGTAA (antisense e[5mC]*eG*eG*eA*eT*dG*dA*dT*dT*d[5mC]*dT*dT*dG*d[5mC]*dT*eG*eG*eT*eA*eA) [ISIS 447114]	73	49	−18	−12	+122%	+9	+12	+22	293	229	232	+184%	+144%	145	0.67	109	0.49	449	1.52	6	percent inhibition of TTC39B mRNA (murine TTC39B mRNA [5]; 12.5 nM): 5%; percent inhibition of TTC39B mRNA (murine TTC39B mRNA [5]; 25.0 nM): 34%; percent inhibition of TTC39B mRNA (murine TTC39B mRNA [5]; 50.0 nM): 71%; percent inhibition of TTC39B mRNA (murine TTC39B mRNA [5]; 100.0 nM): 90%; percent inhibition of TTC39B mRNA (murine TTC39B mRNA [5]; 200.0 nM): 93%; apoA1 mRNA levels (effect of TTC39B inhibition) (apoA1 mRNA): −14
GCAGCTCGATTCGGGCATGA (antisense eG*e[5mC]*eA*eG*e[5mC]*dT*d[5mC]*dG*dA*dT*dT*d[5mC]*dG*dG*dG*e[5mC]*eA*eT*eG*eA) [ISIS 447118]	76	73	−2	0	+88%	+9	+13	+18	242	271	238	+157%	+90%	158	0.67	111	0.51	406	1.18	0	percent inhibition of TTC39B mRNA (murine TTC39B mRNA [5]; 12.5 nM): 24%; percent inhibition of TTC39B mRNA (murine TTC39B mRNA [5]; 25.0 nM): 45%; percent inhibition of TTC39B mRNA (murine TTC39B mRNA [5]; 50.0 nM): 66%; percent inhibition of TTC39B mRNA (murine TTC39B mRNA [5]; 100.0 nM): 77%; percent inhibition of TTC39B mRNA (murine TTC39B mRNA [5]; 200.0 nM): 81%; apoA1 mRNA levels (effect of TTC39B inhibition) (apoA1 mRNA): −23
